Values of other authors in patent US20100095963A1, “PHARMACEUTICAL COMPOSITIONS” (Schering Corporation, priority 2002, published 2010).

Legend:
[1] = not given; remark: listed apart in the source

## C[C@@H]1C[C@H]2[C@@H]3CCC4=CC(=O)C=C[C@]4(C)[C@@]3(Cl)[C@@H](O)C[C@]2(C)[C@@]1(OC(=O)c1ccco1)C(=O)CCl [Mometasone furoate, 9,21-Dichloro-11(beta),17-dihydroxy-16(alpha)-methylpregna-1,4-diene-3,20-dione 17-(2 furoate)]
acetone
  solubility in acetone: soluble
chloroform
  solubility in chloroform: soluble
ethanol
  solubility in ethanol: slightly soluble
isopropanol
  solubility in isopropanol: slightly soluble
methanol
  solubility in methanol: slightly soluble
tetrahydrofuran
  solubility in tetrahydrofuran: freely soluble
water
  solubility in water: practically insoluble
[1]
  partition coefficient between octanol and water: greater than 5000
